The record followed here is patent US8791132B2, “Compounds and methods for treatment of hypertension” (Medivation Technologies, Inc., priority 2011, dated 2014).

Test [1] deals with T1, human recombinant adrenergic α2B receptor (Homo sapiens, UniProt P18089).
T1 construct: expressed in transfected cells; host or cells: CHO-K1
T1 sequence (P18089 1-450): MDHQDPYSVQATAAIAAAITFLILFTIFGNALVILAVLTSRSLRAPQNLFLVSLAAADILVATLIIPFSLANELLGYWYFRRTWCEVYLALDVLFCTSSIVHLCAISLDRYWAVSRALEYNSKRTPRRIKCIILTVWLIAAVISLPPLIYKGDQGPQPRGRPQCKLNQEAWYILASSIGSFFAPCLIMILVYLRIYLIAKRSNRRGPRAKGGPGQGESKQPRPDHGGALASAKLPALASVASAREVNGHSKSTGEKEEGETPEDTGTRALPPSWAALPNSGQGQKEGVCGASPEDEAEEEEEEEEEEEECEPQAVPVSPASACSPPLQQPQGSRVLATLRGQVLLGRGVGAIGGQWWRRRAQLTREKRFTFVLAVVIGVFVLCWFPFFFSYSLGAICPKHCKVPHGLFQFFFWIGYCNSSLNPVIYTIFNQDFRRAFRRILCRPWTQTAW
In words: Radioligand binding, adrenergic α2B ([3H]Rauwolscine). Particulars: for inhibition at 0.03 µM / inhibition at 0.1 µM / Percentage inhibition of ligand binding, Adrenergic α2B (0.03 μM): [3H]Rauwolscine; for inhibition at 0.1 µM: read-out: Percentage inhibition of ligand binding, Adrenergic α2B (0.1 μM), compound at 0.1 μM; for Ki: read-out: Ki α2B. The essentials: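 Values are percent inhibition of specific radioligand binding. The receptor, expressed in CHO-K1 cells, was exposed to 2.5 nM [3H]Rauwolscine at 25° C for 60 min, with 10 μM Prazosin marking non-specific binding.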

For test [2], the target named is T2, human recombinant adrenergic α2A receptor (Homo sapiens, UniProt P08913).
T2 construct: expressed in transfected cells; host or cells: insect Sf9 cells
T2 sequence (P08913 1-465): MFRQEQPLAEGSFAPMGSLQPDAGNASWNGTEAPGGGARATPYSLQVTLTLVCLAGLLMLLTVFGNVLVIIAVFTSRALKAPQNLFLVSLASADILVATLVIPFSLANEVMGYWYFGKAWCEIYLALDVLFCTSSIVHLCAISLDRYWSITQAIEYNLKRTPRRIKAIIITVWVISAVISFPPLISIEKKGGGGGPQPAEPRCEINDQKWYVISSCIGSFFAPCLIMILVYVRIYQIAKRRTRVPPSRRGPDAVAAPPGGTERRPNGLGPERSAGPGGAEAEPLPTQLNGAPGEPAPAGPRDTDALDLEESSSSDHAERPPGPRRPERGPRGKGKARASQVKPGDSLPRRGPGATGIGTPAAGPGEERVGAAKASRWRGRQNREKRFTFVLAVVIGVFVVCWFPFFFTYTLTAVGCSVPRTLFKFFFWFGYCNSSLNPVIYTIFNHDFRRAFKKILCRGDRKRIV
In words: Radioligand binding, adrenergic α2A ([3H]MK-912). Particulars: for inhibition at 0.1 µM / Percentage inhibition of ligand binding, Adrenergic α2A (0.1 μM): [3H]MK-912. The essentials: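 In 50 mM Tris-HCl (pH 7.4) containing 12.5 mM MgCl2 and 2 mM EDTA, Sf9-expressed receptor was exposed to test compound plus 1 nM [3H]MK-912 at 25 °C for 60 min. Specific binding, corrected using 10 μM WB-4101, was quantified by filtration and counting and expressed as percent inhibition.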

The target in test [3] is T3, rat adrenergic α1B receptor (Rattus norvegicus, UniProt P15823).
T3 construct: rat adrenergic α1B receptor obtained from Wistar Rat liver; from tissue; host or cells: Wistar rat liver
T3 sequence (P15823 1-515): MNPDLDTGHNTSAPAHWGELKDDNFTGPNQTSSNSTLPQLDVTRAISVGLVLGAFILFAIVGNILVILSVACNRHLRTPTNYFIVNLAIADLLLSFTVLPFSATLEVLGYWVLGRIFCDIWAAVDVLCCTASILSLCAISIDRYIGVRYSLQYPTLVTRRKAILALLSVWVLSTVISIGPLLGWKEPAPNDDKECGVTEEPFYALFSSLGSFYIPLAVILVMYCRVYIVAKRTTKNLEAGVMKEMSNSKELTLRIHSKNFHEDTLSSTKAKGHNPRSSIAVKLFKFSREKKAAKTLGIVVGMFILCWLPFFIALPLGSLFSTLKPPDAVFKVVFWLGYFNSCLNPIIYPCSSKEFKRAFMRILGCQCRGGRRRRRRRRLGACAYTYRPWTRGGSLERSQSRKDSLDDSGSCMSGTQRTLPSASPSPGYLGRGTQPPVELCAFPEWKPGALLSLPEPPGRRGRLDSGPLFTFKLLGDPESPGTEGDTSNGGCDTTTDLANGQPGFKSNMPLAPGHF
The test can be described thus: Radioligand binding, adrenergic α1B ([3H]Prazosin). Particulars: [3H]Prazosin. The essentials: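 Incubation ran 60 min at 25 °C in Tris-HCl buffer (50 mM, pH 7.4, 0.5 mM EDTA) with Wistar rat liver α1B receptor. 10 μM phentolamine set non-specific binding.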

Setting [4] is: compound at 0.03 μM, repeat assays, each datapoint shown, read-out: Percentage inhibition of ligand binding, Adrenergic α2B.
Where [5] appears, read: compound at 0.1 μM, repeat assays, each datapoint shown, read-out: Percentage inhibition of ligand binding, Adrenergic α2A.
[6] abbreviates: compound at 0.1 μM, repeat assays, each datapoint shown, read-out: Percentage inhibition of ligand binding, Adrenergic α1B.
[7] abbreviates: read-out: Percentage inhibition of ligand binding, Adrenergic α2A (0.1 μM), compound at 0.1 μM, repeat datapoints each shown.
The mark [8] stands for this setting: read-out: Percentage inhibition of ligand binding, Adrenergic α1B (0.1 μM), compound at 0.1 μM, repeat datapoints each shown.
Setting [9] is: read-out: Percentage inhibition of ligand binding, Adrenergic α2B (0.03 μM), compound at 0.03 μM, repeat datapoints each shown.
[10] abbreviates: compound at 0.03 μM, repeat datapoints each shown.
Setting [11] is: compound at 0.1 μM, repeat datapoints each shown.

Where “and” joins values, the source holds several entries; their conditions need not be identical. Equal values may be shown once. Read-outs that look alike come from different tables or passages of the source.

On to `Cc1ccc2c(c1)c1c(n2CC(=O)c2cc[n+]([O-])cc2)CCN(C)C1` [compound 68], for which the inhibition (as a rule, the change of the read-out against control, counted positive when it falls) at 0.03 µM in test [1] (setting [4]) worked out at 4%. Moreover, the inhibition at 0.1 µM in test [2] (setting [5]) came out at 1%; in test [3] (setting [6]), 2%.

For `CC(O)c1ccc2c(c1)c1c(n2CC(O)c2ccncc2)CCN(C)C1` (centres unmarked) [compound 70], in test [1] (setting [4]), the inhibition at 0.03 µM is 26%. For the same molecule, the inhibition at 0.1 µM in test [2] (setting [5]) amounted to 10%; in test [3] (setting [6]), 8%.

Consider `Cc1ccc2c(c1)c1c(n2CC(O)c2ccncc2)C(C)(C)CN(C)C1` (centres unmarked) [compound 71, 1-pyridin-4-yl-2-(2,4,4,8-tetramethyl-1,2,3,4-tetrahydro-pyrido[4,3-b]indol-5-yl)-ethanol], for which the inhibition at 0.03 µM in test [1] (setting [4]) worked out at 9%. In addition, the inhibition at 0.1 µM in test [2] (setting [5]) and in test [3] (setting [6]) was 11% each time.

Consider `CCOC(=O)N1CCc2c(c3cc(C)ccc3n2CC(O)c2ccncc2)C1` (centres unmarked) [compound 72, ethyl 3,4-dihydro-5-(2-hydroxy-2-(pyridin-4-yl)ethyl)-8-methyl-1H-pyrido[4,3-b]indole-2(5H)-carboxylate], for which the inhibition at 0.03 µM in test [1] (setting [4]) came out at 12%. Also, the inhibition at 0.1 µM was -2% in test [2] (setting [5]) and 6% in test [3] (setting [6]).

Take `Cc1ccc2c(c1)c1c(n2CC(O)c2ccncc2)CC2CCC1N2C` (centres unmarked) [compound 73]: in test [1] (setting [4]), the inhibition at 0.03 µM turned out to be 61%. In addition, the inhibition at 0.1 µM in test [2] (setting [5]) was found to be 15%; in test [3] (setting [6]), 17%.

Turning to `Cc1ccc2c(c1)c1c(n2/C=C/c2ccncc2)CCNC1` [compound 79, 8-methyl-5-(2-(pyridin-4-yl)vinyl)-2,3,4,5-tetrahydro-1H-pyrido[4,3-b]indole], the inhibition at 0.03 µM in test [1] (setting [4]) was found to be 77%. The inhibition at 0.1 µM in test [2] (setting [5]) amounted to 19%; in test [3] (setting [6]) it was 34%.

For `C/C(=C/n1c2c(c3cc(C)ccc31)CN(C)CC2)c1cn[nH]c1` [compound 80], the inhibition at 0.03 µM in test [1] (setting [4]) is 81%. The values for the inhibition at 0.1 µM in test [2] (setting [5]) and in test [3] (setting [6]) were 12% and 49%, respectively.

As to `Cc1cccc2c3c(n(CC(O)c4ccncc4)c12)CCN(C)C3` (centres unmarked) [compound 82, 2-(2,6-dimethyl-1,2,3,4-tetrahydro-pyrido[4,3-b]indol-5-yl)-1-pyridin-4-yl-ethanol], the inhibition at 0.03 µM in test [1] (setting [4]) came to 79%. The inhibition at 0.1 µM came to 5% in test [2] (setting [5]) and 16% in test [3] (setting [6]).

With `Cc1ccc2c(c1)c1c(n2CCc2cncc(F)c2)CCN(C)C1` [compound 117, 5-[2-(5-fluoro-pyridin-3-yl)-ethyl]-2,8-dimethyl-2,3,4,5-tetrahydro-1H-pyrido[4,3-b]indole], the figures for the inhibition at 0.1 µM in test [1] (repeat datapoints each shown), in test [2] (setting [7]) and in test [3] (setting [8]) were 68%, 18% and 59%, respectively.

Turning to `C=C(Cn1c2c(c3cc(C)ccc31)CN(C)CC2)c1cccnc1` [compound 132], the inhibition at 0.03 µM in test [1] (setting [9]) turned out to be 91%. For the same molecule, the inhibition at 0.1 µM in test [2] (setting [7]) was 19%; in test [3] (setting [8]), 28%.

For the molecule `Cc1ccc2c(c1)c1c(n2CC(O)c2ccc(C(N)=O)cc2)CCN(C)C1` (centres unmarked) [compound 139, 4-[2-(2,8-dimethyl-1,2,3,4-tetrahydro-pyrido[4,3-b]indol-5-yl)-1-hydroxy-ethyl]-benzamide], the “Percentage inhibition of ligand binding, Adrenergic α2B (0.03 μM)” value (shortened to “Percentage inhibition … (0.03 μM)”) in test [1] (setting [10]) is 59% and 83%. Moreover, the Ki (in general, the dissociation constant of the complex between target and ligand, obtained from inhibition or displacement) in test [1] turned out to be 8.12 nM; in test [2], 390 nM. The inhibition at 0.1 µM in test [1] (repeat datapoints each shown) was 87%. Further, the “Percentage inhibition of ligand binding, Adrenergic α2A (0.1 μM)” value in test [2] (setting [11]) is −2%. For the same molecule, in test [3] (setting [11]), the “Percentage inhibition of ligand binding, Adrenergic α1B (0.1 μM)” value was 72%. For the same molecule, the inhibition at 0.03 µM in test [3] (read-out: Percentage inhibition of ligand binding, Adrenergic α1B (0.03 μM), compound at 0.03 μM, repeat datapoints each shown) worked out at 46%.

`Cc1ccc2c(c1)c1c(n2CC(O)c2ccc(C#N)nc2)CCN(C)C1` (centres unmarked) [compound 140, 5-[2-(2,8-dimethyl-1,2,3,4-tetrahydro-pyrido[4,3-b]indol-5-yl)-1-hydroxy-ethyl]-pyridine-2-carbonitrile]: the “Percentage inhibition … (0.03 μM)” value in test [1] (setting [10]) was found to be 49%. Moreover, the “Percentage inhibition of ligand binding, Adrenergic α2A (0.1 μM)” value in test [2] (setting [11]) was −2%. In addition, in test [3] (setting [11]), the “Percentage inhibition of ligand binding, Adrenergic α1B (0.1 μM)” value turned out to be 37%.

`Cc1ccc2c(c1)c1c(n2CC(OC(=O)N(C)C)c2ccncc2)CCN(C)C1` (centres unmarked) [compound 141, N,N-dimethyl-carbamic acid 2-(2,8-dimethyl-1,2,3,4-tetrahydro-pyrido[4,3-b]indol-5-yl)-1-pyridin-4-yl-ethyl ester]: in test [1] (setting [9]), the inhibition at 0.03 µM amounted to 76%. In addition, the “Percentage inhibition of ligand binding, Adrenergic α2A (0.1 μM)” value in test [2] (setting [11]) is recorded as 5%. Besides, the inhibition at 0.1 µM in test [3] (setting [8]) was found to be 23%.

For the molecule `Cc1cnc2c(c1)c1c(n2CC(O)c2ccc(C#N)cc2)CCN(C)C1` (centres unmarked) [compound 145], the inhibition at 0.03 µM in test [1] (setting [9]) came to 61%. In addition, the figures for the inhibition at 0.1 µM in test [2] (setting [7]) and in test [3] (setting [8]) were 6% and 49%, respectively.

On to `Cc1ccc2c(c1)c1c(n2CC(OC(=O)c2ccncc2)c2ccncc2)CCN(C)C1` (centres unmarked) [compound 147, isonicotinic acid 2-(2,8-dimethyl-1,2,3,4-tetrahydro-pyrido[4,3-b]indol-5-yl)-1-pyridin-4-yl-ethylester], for which the “Percentage inhibition … (0.03 μM)” value in test [1] (setting [10]) is 91% and 102%. Moreover, the Ki in test [1] was 1.49 nM. Besides, in test [2] (setting [11]), the “Percentage inhibition of ligand binding, Adrenergic α2A (0.1 μM)” value worked out at 19%. For the same molecule, in test [3] (setting [11]), the “Percentage inhibition of ligand binding, Adrenergic α1B (0.1 μM)” value is listed as 7%.

On to `Cc1ccc2c(c1)c1c(n2CC(N)c2ccncc2)CN(C)CC1` (centres unmarked) [compound 153, 2-(2,6-dimethyl-3,4-dihydro-1H-pyrido[3,4-b]indol-9(2H)-yl)-1-(pyridin-4-yl)ethanamine], for which the inhibition at 0.03 µM in test [1] (setting [9]) was determined as 17%. Moreover, the results for the inhibition at 0.1 µM in test [2] (setting [7]) and in test [3] (setting [8]) were 6% and 17%, respectively.

As to `Cc1ccc2c(c1)c1c(n2CC(N)c2ccncc2)CCN(C)CC1` (centres unmarked) [compound 154, 2-(3,9-dimethyl-2,3,4,5-tetrahydroazepino[4,5-b]indol-6(1H)-yl)-1-(pyridin-4-yl)ethanamine], the “Percentage inhibition … (0.03 μM)” value in test [1] (setting [10]) stood at 58%. The “Percentage inhibition of ligand binding, Adrenergic α2A (0.1 μM)” value in test [2] (setting [11]) is 15%. Besides, the “Percentage inhibition of ligand binding, Adrenergic α1B (0.1 μM)” value in test [3] (setting [11]) was determined as 86%.

For `Cc1cnc2c(c1)c1c(n2CC(N)c2ccncc2)CCN(C)C1` (centres unmarked) [compound 156], the inhibition at 0.03 µM in test [1] (setting [9]) worked out at 6%. In addition, the inhibition at 0.1 µM was found to be 1% in test [2] (setting [7]) and 21% in test [3] (setting [8]).
